Data taken from PubChem BioAssay (NCI).
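Each compound was tested at five concentrations against cells in 96-well plates for 48 hours. Abbreviation: GI50, concentration required for 50% inhibition of growth. TGI denotes the concentration required for complete inhibition of growth.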

Columns and labels:
Assay in all cases: DTP human tumour cell line panel, 48 h
A549 NSCLC = system: A549 NSCLC
CCRF-CEM leukemia = system: CCRF-CEM leukemia
COLO 205 colon = system: COLO 205 colon
NCI/ADR-RES ovarian = system: NCI/ADR-RES ovarian
SF-295 CNS = system: SF-295 CNS
SN12C renal = system: SN12C renal
SNB-75 CNS = system: SNB-75 CNS
SR leukemia = system: SR leukemia
SW-620 colon = system: SW-620 colon
UO-31 renal = system: UO-31 renal

| SMILES | TGI (A549 NSCLC) [µM] | TGI (CCRF-CEM leukemia) [µM] | TGI (COLO 205 colon) [µM] | TGI (NCI/ADR-RES ovarian) [µM] | TGI (SF-295 CNS) [µM] | TGI (SN12C renal) [µM] | TGI (SNB-75 CNS) [µM] | TGI (SR leukemia) [µM] | TGI (SW-620 colon) [µM] | TGI (UO-31 renal) [µM] | GI50 (A549 NSCLC) [µM] | GI50 (CCRF-CEM leukemia) [µM] | GI50 (COLO 205 colon) [µM] | GI50 (NCI/ADR-RES ovarian) [µM] | GI50 (SF-295 CNS) [µM] | GI50 (SN12C renal) [µM] | GI50 (SNB-75 CNS) [µM] | GI50 (SR leukemia) [µM] | GI50 (SW-620 colon) [µM] | GI50 (UO-31 renal) [µM] |
| --- | --- | --- | --- | --- | --- | --- | --- | --- | --- | --- | --- | --- | --- | --- | --- | --- | --- | --- | --- | --- |
| CC[N+](C)(CC)CCC(O)(c1ccccc1)c1ccccc1 | > 100 | > 100 | > 100 | > 100 | > 100 | > 100 | > 100 | > 100 | > 100 | > 100 | – | – | – | – | – | – | – | – | – | – |
| CC1(C)OCC(C(O)C2OC(C)(C)OC2C=O)O1 (stereo not given) | > 100 | > 100 | > 100 | > 100 | > 100 | > 100 | > 100 | > 100 | > 100 | > 100 | – | – | – | – | – | – | – | – | – | – |
| CCOC(=O)C1(C(=O)OCC)[C@H](c2ccccc2)C2=NO[C@@H]3CCC[C@H]1[C@H]23 | > 100 | > 100 | > 100 | > 100 | > 100 | > 100 | > 100 | > 100 | > 100 | > 100 | – | – | – | – | – | – | – | – | – | – |
| Cc1ccc(C(=O)O)c(CC2Cc3c(C)cccc3C2=O)c1 (stereo not given) | > 100 | > 100 | > 100 | > 100 | > 100 | > 100 | > 100 | > 100 | > 100 | > 100 | – | – | – | – | – | – | – | – | – | – |
| Nc1nc(-c2ccccc2N=NN2CCCC2)nc2ccccc12 | 10.5 | 19.1 | 10.4 | 12.2 | 10.5 | 3.43 | 23.8 | 2.38 | 5.96 | 3.43 | – | – | – | – | – | – | – | – | – | – |
| C(=C\c1cccc(/C=C/c2ccccn2)n1)/c1ccccn1 | > 100 | > 100 | > 100 | > 100 | > 100 | > 100 | > 100 | > 100 | > 100 | > 100 | – | – | – | – | – | – | – | – | – | – |
| Cc1cc(/C=C\c2ccc3ccccc3[n+]2C)c(O)c2ncccc12 | 13.6 | > 100 | 4.58 | 13.6 | 1.44 | 8.95 | 7.24 | > 100 | 2.15 | 3.27 | 0.564 | 0.331 | 0.448 | 1.1 | 0.0827 | 0.375 | 1.83 | 0.168 | 0.196 | 0.405 |
| C=C(CCC(C)C1CCC2C3=C(C(=O)CC21C)C1(C)CCC(=O)[C@@H](C)C1CC3=O)C(C)C(=O)O (stereo not given in full) | > 100 | 42.2 | > 100 | > 100 | > 100 | > 100 | > 100 | 74.8 | > 100 | 32.4 | – | – | – | – | – | – | – | – | – | – |
| Cc1cccc2c1[nH]c1[nH]c(=O)[nH]c(=O)c12 | > 100 | > 100 | > 100 | > 100 | > 100 | > 100 | 85.5 | > 100 | > 100 | > 100 | – | – | – | – | – | – | – | – | – | – |
| O=C1NC(=O)/C(=C/c2ccc(S(=O)(=O)N/N=C/c3ccc(Cl)cc3)cc2)N1 | > 100 | > 100 | > 100 | > 100 | > 100 | > 100 | > 100 | > 100 | > 100 | > 100 | – | – | – | – | – | – | – | – | – | – |
| Cc1cc(=O)n2nc(SCc3ccccc3)sc2n1 | > 100 | > 100 | > 100 | > 100 | > 100 | > 100 | > 100 | > 100 | > 100 | 67.5 | – | – | – | – | – | – | – | – | – | – |
| Cc1cc(C)c(P2C(=C(O[Si](C(C)C)(C(C)C)C(C)C)C(C)(C)C)C2(c2ccccc2)c2ccccc2)c(C)c1 (stereo not given) | > 100 | > 100 | > 100 | > 100 | > 100 | > 100 | > 100 | > 100 | > 100 | > 100 | – | – | – | – | – | – | – | – | – | – |
| N=C1N(S(=O)(=O)c2ccccc2)[C@@H](Cc2ccccc2)[C@H](c2ccccc2)C1(c1ccccc1)c1ccccc1 | > 100 | > 100 | > 100 | > 100 | > 100 | > 100 | > 100 | > 100 | > 100 | > 100 | – | – | – | – | – | – | – | – | – | – |
| COc1cc(/C=C/C(=O)c2c(=O)o[nH][n+]2-c2ccccc2)ccc1[O-] | 14.8 | 3.52 | 27.2 | 7.22 | 31.6 | 5.3 | 8.7 | 4.54 | 5.85 | 10.1 | – | – | – | – | – | – | – | – | – | – |
| COC1OC(Cc2nnc(C)o2)C(OCc2ccccc2)C(OCc2ccccc2)C1OCc1ccccc1 (stereo not given) | > 100 | 52.7 | 44.1 | 70 | 52.6 | 85.3 | > 100 | 29.6 | > 100 | > 100 | – | – | – | – | – | – | – | – | – | – |
| CCOC(=O)c1c(N2CCCC2)ncn(-c2ccccc2)c1=S | > 100 | > 100 | > 100 | > 100 | > 100 | > 100 | > 100 | > 100 | > 100 | > 100 | – | – | – | – | – | – | – | – | – | – |
| CCOC(=O)C(=[N+]=[N-])C(=O)Nc1nn2nnnc2c2ccccc12 | > 100 | > 100 | > 100 | > 100 | > 100 | > 100 | > 100 | > 100 | > 100 | > 100 | – | – | – | – | – | – | – | – | – | – |
| CCNc1ccc2c(c1)Cc1ccccc1-2 | > 100 | > 100 | > 100 | > 100 | > 100 | > 100 | > 100 | > 100 | > 100 | > 100 | – | – | – | – | – | – | – | – | – | – |
| CCOC(=O)C(NC(=O)N(C1=NCC(C)S1)C1CCCCC1)(OC)C(F)(F)F (stereo not given) | > 100 | > 100 | 50.8 | > 100 | > 100 | 29.3 | 75.1 | > 100 | > 100 | > 100 | – | – | – | – | – | – | – | – | – | – |
| Cc1ccc(C(=O)N/N=C(\N=Nc2cccc(Cl)c2)c2ccc(N(CCC#N)CCC#N)cc2C)cc1 | > 100 | > 100 | > 100 | > 100 | > 100 | > 100 | > 100 | > 100 | > 100 | > 100 | – | – | – | – | – | – | – | – | – | – |
| COc1cccc(CC(C)NCC(O)c2ccc(O)c(O)c2)c1 (stereo not given) | > 100 | > 100 | > 100 | > 100 | > 100 | 83.8 | > 100 | 67.4 | > 100 | > 100 | – | – | – | – | – | – | – | – | – | – |
| Nc1ncnc2c1ncn2C1CCC(COS(N)(=O)=O)C1 (stereo not given) | > 100 | > 100 | > 100 | > 100 | > 100 | > 100 | > 100 | > 100 | > 100 | > 100 | – | – | – | – | – | – | – | – | – | – |
| COc1ccc(/C=c2\[nH]c3nc(=O)c(N4CCOCC4)c(N)n3c2=O)cc1 | > 100 | > 100 | > 100 | > 100 | > 100 | > 100 | 64.5 | > 100 | > 100 | > 100 | – | – | – | – | – | – | – | – | – | – |
